The source of these data is US9499493B2, “2,4-pyrimidinediamine compounds and their uses” (Rigel Pharmaceuticals, Inc., priority 2002, dated 2016).

Assay [1] deals with cultured human mast cells (CHMC). In words: CHMC low cell density ionomycin activation: tryptase assay. The format is cell-based.
The test system is the same in assay [2]. In words: CHMC low cell density IgE activation: tryptase assay. It counts as cell-based. The following applies: anti-IgE. Summed up: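 CHMC resuspended in pre-warmed MT buffer at 1000-1500 cells/well (donor-dependent) and preincubated 1 hr at 37° C, then stimulated with anti-IgE for 30 min at 37° C; unstimulated wells got MT alone. Supernatant tryptase activity read with tryptase substrate after 30 min at room temperature.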

SMILES strings stand for the structures.

Take `CCOC(=O)c1cnc(N[C@H](C(=O)OCC)C(C)C)nc1N[C@H](C(=O)OCC)C(C)C` [R926527, 2,4-Bis[N-(L)-valinylethyl ester]-5-ethoxycarbonylpyrimidine]: the IC50 in assay [1] and in assay [2] was above 10 µM throughout.

Regarding `CCOC(=O)c1cnc(Nc2cccc(O)c2)nc1N[C@@H](Cc1ccccc1)C(=O)OCC` [R926528, 5-Ethoxycarbonyl-N2-(3-hydroxyphenyl)-4-[N-(L)-phenylalanineethyl ester]-2-pyrimidineamine], the IC50 was above 10 µM in assay [1] and 8.75 µM in assay [2].

With `O=C(O)c1cnc(Nc2cccc(O)c2)nc1NC(C(=O)O)c1ccccc1` (centres unmarked) [R926535, 5-Carboxy-N2-(3-hydroxyphenyl)-N4-[N-(L)-phenylglycine)-2-pyrimidineamine], the IC50 in assay [1] and in assay [2] was above 10 µM in each case.

For `CCOC(=O)COc1ccc(Nc2nc(Cl)cc(NCC(=O)OC)n2)cc1` [R926555, 6-Chloro-N2-(4-ethoxycarbonylmethyleneoxyphenyl)-N4-(methoxycarbonylmethyl)-2,4-pyrimidinediamine], the IC50 in assay [1] and in assay [2] was above 10 µM each time.

Regarding `COC(=O)c1cnc(Nc2ccc(OCC(=O)N3CCCC3)cc2)nc1Nc1ccc(OCC(=O)N2CCCC2)cc1` [R926559, 5-Methoxycarbonyl-N2,N4-bis[4-(N-pyrrolidino)carbonylmethyleneoxyphenyl)-2,4-pyrimidinediamine], the IC50 in assay [1] was above 10 µM; in assay [2] it was 7.7 µM.

As for `O=C(O)COc1ccc(Nc2ncc(F)c(Nc3ccc(OCC(=O)O)cc3)n2)cc1` [R926560, N2,N4-Bis(4-carboxymethyleneoxy)phenyl-5-fluoro-2,4-pyrimidinediamine], the IC50 in assay [1] and in assay [2] was above 10 µM each time.

Turning to `CCOC(=O)c1cnc(Nc2ccc(OCC(=O)N3CCCC3)cc2)nc1Nc1ccc(OCC(=O)N2CCCC2)cc1` [R926562, N2,N4-Bis[4-(N-pyrrolidino)carbonylmethyleneoxyphenyl]-5-ethoxycarbonyl-2,4-pyrimidinediamine], the IC50 in assay [1] and in assay [2] was above 10 µM each time.

As for `O=C(COc1ccc(Nc2ncc(F)c(Nc3ccc(OCC(=O)N4CCCC4)cc3)n2)cc1)N1CCCC1` [R926563, N2,N4-Bis(4-N-pyrrolidinocarbonylmethyleneoxyphenyl)-5-fluoro-2,4-pyrimidinediamine], the IC50 in assay [1] and in assay [2] was above 10 µM in each case.

With `O=C(O)COc1ccc(Nc2ncc(F)c(Nc3cccc(O)c3)n2)cc1` [R926564, N2-(4-Carboxymethyleneoxyphenyl)-5-Fluoro-N4-(3-hydroxyphenyl)-2,4-pyrimidinediamine], the IC50 in assay [1] was above 10 µM; in assay [2] it was 3.75 µM.

For the molecule `CCOC(=O)COc1ccc(Nc2nc(Nc3ccc(OCC(=O)OCC)cc3)c([N+](=O)[O-])c(C(=O)OCC)n2)cc1` [R926566, N2,N4-Bis(4-ethoxycarbonylmethylenedioxyphenyl)-6-ethoxycarbonyl-5-nitro-2,4-pyrimidinediamine], the IC50 in assay [1] is above 10 µM; in assay [2] it was 2.73 µM.

For the molecule `CCOC(=O)COc1ccc(Nc2nc(Nc3ccc(OCC(=O)OCC)cc3)c(N)c(C(=O)OCC)n2)cc1` [R926567, 5-Amino-N2,N4-bis(4-ethoxycarbonylmethyleneoxyphenyl)-6-ethoxycarbonyl-2,4-pyrimidinediamine], the IC50 in assay [1] was above 10 µM; in assay [2], 9.3 µM.

In the case of `CCOC(=O)COc1ccc(Nc2nc(Cl)c(Cl)c(Nc3ccc(OCC(=O)OCC)cc3)n2)cc1` [R926569, N2,N4-Bis(4-ethoxycarbonylmethyleneoxyphenyl)-5,6-dichloro-2,4-pyrimidinediamine], the IC50 in assay [1] is 3.07 µM; in assay [2] it was 0.61 µM.

For `CCOC(=O)COc1ccc(Nc2nc(Nc3ccc(OCC(=O)OCC)cc3)c(NC(=O)Nc3ccccc3)c(C(=O)OCC)n2)cc1` [R926571, N2,N4-Bis(4-ethoxycarbonylmethyleneoxyphenyl)-6-ethoxycarbonyl-5-(phenylaminocarbonylamino)-2,4-pyrimidinediamine], the IC50 in assay [1] and in assay [2] was above 10 µM in each case.

For the molecule `COC(=O)COc1ccc(Nc2ncc(F)c(Nc3ccc(OCC(=O)OC(C)(C)C)cc3)n2)cc1` [R926572], the IC50 stood at 6.08 µM in assay [1] and 1.8 µM in assay [2].

Regarding `CC(C)(C)OC(=O)COc1ccc(Nc2ncc(F)c(Nc3ccc(OCC(=O)OC(C)(C)C)cc3)n2)cc1` [R926574, N2,N4-Bis[4-(tert-butoxycarbonylmethyleneoxy)phenyl]-5-fluoro-2,4-pyrimidinediamine], the IC50 came to 2.63 µM in assay [1] and 1.96 µM in assay [2].

As to `CC(C)(C)OC(=O)COc1ccc(Nc2nc(Cl)c(Cl)c(Nc3ccc(OCC(=O)OC(C)(C)C)cc3)n2)cc1` [R926576, N2,N4-Bis(4-tert-butoxyoxycarbonylmethyleneoxyphenyl)-5,6-dichloro-2,4-pyrimidinediamine], the IC50 in assay [1] and in assay [2] was above 10 µM in each case.

As for `CCOC(=O)c1cnc(Nc2ccc(OCC(=O)OC)cc2)nc1Nc1ccc(OCC(=O)OC(C)(C)C)cc1` [R926579, N4-(4-tert-Butoxycarbonylmethyleneoxyphenyl)-5-ethoxycarbonyl-N2-(4-methoxycarbonylmethyleneoxyphenyl)-2,4-pyrimidinediamine], the IC50 in assay [1] and in assay [2] was above 10 µM each time.

Take `COC(=O)COc1ccc(Nc2ncc(C(=O)OC)c(Nc3ccc(OCC(=O)OC(C)(C)C)cc3)n2)cc1` [R926580, N4-(4-tert-Butoxycarbonylmethyleneoxyphenyl)-N2-(4-methoxycarbonylmethyleneoxyphenyl)-5-methoxycarbonyl-2,4-pyrimidinediamine]: the figures for the IC50 in assay [1] and in assay [2] were above 10 µM and 10 µM, respectively.

For the molecule `CCOC(=O)c1cnc(Nc2ccc(OCC(=O)OC)cc2)nc1Nc1ccc(OCC(=O)O)cc1` [R926583, N4-(4-Carboxymethyleneoxyphenyl)-5-ethoxycarbonyl-N2-(4-methoxycarbonylmethyleneoxyphenyl)-2,4-pyrimidinediamine], the IC50 in assay [1] and in assay [2] was above 10 µM each time.

On to `CCOC(=O)c1cnc(Nc2ccc(OCC(=O)O)cc2)nc1Nc1ccc(OCC(=O)OC)cc1` [R926584, N2-(4-Carboxymethyleneoxyphenyl)-5-ethoxycarbonyl-N4-(4-methoxycarbonylmethyleneoxyphenyl)-2,4-pyrimidinediamine], for which the IC50 in assay [1] and in assay [2] was above 10 µM in each case.

As for `C=CCNC(=O)Nc1c(Nc2ccc(OCC(=O)OCC)cc2)nc(Nc2ccc(OCC(=O)OCC)cc2)nc1C(=O)OCC` [R926585], the IC50 in assay [1] and in assay [2] was above 10 µM throughout.

Consider `CCOC(=O)COc1ccc(Nc2nc(Nc3ccc(OCC(=O)OCC)cc3)c(NC(=O)NC(=O)OCC)c(C(=O)OCC)n2)cc1` [R926586, N2,N4-Bis(4-ethoxycarbonylmethyleneoxyphenyl)-6-ethoxycarbonyl-5-(ethoxycarbonylaminocarbonylamino)-2,4-5-pyrimidinetriamine], for which the IC50 was above 10 µM in assay [1] and 2.75 µM in assay [2].

Turning to `CCOC(=O)CNC(=O)Nc1c(Nc2ccc(OCC(=O)OCC)cc2)nc(Nc2ccc(OCC(=O)OCC)cc2)nc1C(=O)OCC` [R926587, N2,N4-Bis(4-ethoxycarbonylmethyleneoxyphenyl)-6-ethoxycarbonyl-5-(ethoxycarbonylmethyleneaminocarbonylamino)-2,4-pyrimidinediamine], the IC50 in assay [1] and in assay [2] was above 10 µM throughout.

As for `CCOC(=O)COc1ccc(Nc2nc(Nc3ccc(OCC(=O)OCC)cc3)c(NC(=O)NC3CCCC3)c(C(=O)OCC)n2)cc1` [R926588, N2,N4-Bis(4-ethoxycarbonylmethyleneoxyphenyl)-6-ethoxycarbonyl-5-(cyclopentylaminocarbonylamino)-2,4-pyrimidinediamine], the IC50 in assay [1] is above 10 µM; in assay [2] it was 7.85 µM.

As for `CSc1nc(Nc2cccc(O)c2)nc(Nc2cccc(O)c2)c1Cl` [R926595, N2,N4-Bis(3-hydroxyphenyl)-5-chloro-6-thiomethyl-2,4-pyrimidinediamine], the IC50 was above 10 µM in assay [1] and 4.85 µM in assay [2].

`COCc1cc(=O)oc2cc(Nc3ncc(F)c(Nc4ccc5c(COC)cc(=O)oc5c4)n3)ccc12` [R926620]: the IC50 is above 10 µM in assay [1] and 8.35 µM in assay [2].

On to `CCOC(=O)COc1ccc(Nc2ncc(F)c(Nc3ccc(OCC(=O)OCC)c(Cl)c3)n2)cc1Cl` [R926676, N2,N4-Bis[3-chloro-4-(ethoxycarbonylmethyleneoxy)phenyl]-5-fluoro-2,4-pyrimidinediamine], for which the IC50 is above 10 µM in assay [1] and 0.76 µM in assay [2].

`COCOc1ccc(Nc2nc(Nc3cccc(O)c3)ncc2F)c(F)c1` [R926680, 5-Fluoro-N4-[2-fluoro-4-(methoxymethyleneoxy)phenyl]-N2-(3-hydroxyphenyl)-2,4-pyrimidinediamine]: the IC50 in assay [1] was above 10 µM; in assay [2], 1.71 µM.

`CC1(C)COC(COc2ccc(Nc3ncc(F)c(Nc4cccc(O)c4)n3)cc2)=N1` [R926702, 5-Fluoro-N4-(3-hydroxyphenyl)-N2-[4-[(4,4-dimethyl-3-oxazolin-2-yl)methyleneoxy]phenyl]-2,4-pyrimidinediamine]: the values for the IC50 in assay [1] and in assay [2] were above 10 µM and 0.886 µM, respectively.

As to `CNC(=O)COc1ccc(Nc2ncc(F)c(Nc3ccc4c(c3)OCCO4)n2)cc1` [R926708, N4-(3,4-Ethylenedioxyphenyl)-5-fluoro-N2-[4-(N-methylamino)carbonylmethyleneoxyphenyl]-2,4-pyrimidinediamine], the values for the IC50 in assay [1] and in assay [2] were above 10 µM and 0.472 µM, respectively.

Consider `Fc1cnc(Nc2ccc(OCCN3CCOCC3)cc2)nc1Nc1ccc2c(c1)OCCO2` [R926709, N4-(3,4-Ethylenedioxyphenyl)-5-fluoro-N2-[4-[2-(N-morpholino)ethyleneoxy]phenyl]-2,4-pyrimidinediamine], for which the IC50 in assay [1] is above 10 µM; in assay [2] it was 0.858 µM.

As a reminder, the IC50 is the concentration that gives 50% inhibition. Low readings indicate higher potency, high ones lower potency.
